Measurements as given in US20250041284A1, “TREATMENT OF NEUROLOGICAL DISORDERS” (Praxis Precision Medicines, Inc., priority 2022, published 2025).
pIC50: −log10 of the molar value.

How the values were obtained:
[1] = tested on: scPTZ-induced seizures in wildtype CD-1 mice; test: Subcutaneous pentylenetetrazole (scPTZ) induced seizure; assay type: in vivo, mouse; details: 1-10 mg/kg orally
Experimental: Male CD-1 mice (Charles River Laboratories, St. Constant, Quebec, Canada) were used for the study. Body weights at the time the experiment was carried out were between 27 and 39 grams. The mice were group-housed in polycarbonate cages according to standard operating procedures. Animals were maintained on a 12 hour light/12 hour dark cycle, with all experimental activities occurring during the light phase. Food and water were available ad libitum. Mice acclimated to the test facility for at least 72 hours prior to testing.
Treatment was conducted using Compound 1 and 35% 2-hydroxypropyl-β-cyclodextrin (35% HPBCD, used as a negative control). Compound 1 stock solution was prepared fresh each experiment day in 35% HPBCD. […]
Immediately prior to the administration of PTZ, a brief neurological assessment was performed. Each animal was visually assessed and received a score from 0 to 3 according to the following scoring system: neurological score of 0 corresponds to a normal status; neurological score of 1 corresponds to a modest decrease in spontaneous activity; neurological score of 2 corresponds to a marked decrease in spontaneous activity; and neurological score of 3 corresponds to loss of righting reflex.
PTZ (85 mg/kg, 10 ml/kg) was administered as a subcutaneous (s.c.) injection. […] The latency to generalized clonic seizure was recorded. Seizures were also scored using a seizure scale. […]

hNaV1.6 = molecular target: T1, hNaV1.6 (Homo sapiens, UniProt Q9UQD0); test: Peak INa voltage-dependent block (VDB), automated patch clamp in HEK cells; assay type: cell-based
T1 construct: expressed in transfected cells; host or cells: HEK cells

[2] = Phase 1 clinical trial, single ascending dose (Part A), healthy volunteers; assay type: in vivo, human; details: healthy participants, single oral doses up to 45 mg
Text: This is a trial to assess the safety, tolerability, pharmacokinetics (PK), and pharmacodynamics (PD) of Compound 1 in healthy participants aged 18 to 55 years (inclusive). The trial is initially comprised of 2 parts, with 1 additional optional part, as follows: • Part A is randomized, double-blinded, and placebo-controlled. Part A is designed to investigate the safety, PK, and PD of single ascending doses of Compound 1. • Part B is randomized, double-blinded, and placebo-controlled. Part B is designed to investigate the safety, PK, and PD of multiple ascending doses (selected based on the results from Part A) of Compound 1. • Part C (optional) is a randomized, open-label, crossover design food effect evaluation to investigate the PK of a single dose (selected based on the results from Part A) of Compound 1 in the fasted and fed state.
Safety and tolerability assessments for Parts A, B, and C will include vital signs, 12-lead ECGs, physical examinations, clinical laboratory tests, and the C-SSRS (for Part B).
Healthy participants will be enrolled to receive single ascending oral doses of Compound 1 or placebo on Day 1. FIG. 14A is an illustration of the dosing scheme for Part A (single ascending dose) of the trial. Dose escalation in Part A will initially be conducted in up to a total of 4 planned cohorts (Cohorts A1 to A4). Following completion of Cohort A4, up to an additional 3 escalation cohorts may be added. […] Doses may be adjusted upward or downward based on safety, tolerability, and PK data from the preceding cohorts. Cohorts after A4 will be numbered sequentially (A5, A6, etc.). […]
Compound 1 will be administered to Cohort A1 participants at the starting dose of 5 mg. […] The safety and tolerability of each sentinel participant will be monitored until Day 2 and will be reviewed prior to dosing the remainder of participants in the cohort. […]
Cohorts will be dosed in an escalating order. […] If the current dose level is determined to be safe and tolerated by the SRC, the next dose cohort will be randomized to receive the selected dose of active Compound 1 or placebo. […]

T1 sequence (Q9UQD0 whole entry): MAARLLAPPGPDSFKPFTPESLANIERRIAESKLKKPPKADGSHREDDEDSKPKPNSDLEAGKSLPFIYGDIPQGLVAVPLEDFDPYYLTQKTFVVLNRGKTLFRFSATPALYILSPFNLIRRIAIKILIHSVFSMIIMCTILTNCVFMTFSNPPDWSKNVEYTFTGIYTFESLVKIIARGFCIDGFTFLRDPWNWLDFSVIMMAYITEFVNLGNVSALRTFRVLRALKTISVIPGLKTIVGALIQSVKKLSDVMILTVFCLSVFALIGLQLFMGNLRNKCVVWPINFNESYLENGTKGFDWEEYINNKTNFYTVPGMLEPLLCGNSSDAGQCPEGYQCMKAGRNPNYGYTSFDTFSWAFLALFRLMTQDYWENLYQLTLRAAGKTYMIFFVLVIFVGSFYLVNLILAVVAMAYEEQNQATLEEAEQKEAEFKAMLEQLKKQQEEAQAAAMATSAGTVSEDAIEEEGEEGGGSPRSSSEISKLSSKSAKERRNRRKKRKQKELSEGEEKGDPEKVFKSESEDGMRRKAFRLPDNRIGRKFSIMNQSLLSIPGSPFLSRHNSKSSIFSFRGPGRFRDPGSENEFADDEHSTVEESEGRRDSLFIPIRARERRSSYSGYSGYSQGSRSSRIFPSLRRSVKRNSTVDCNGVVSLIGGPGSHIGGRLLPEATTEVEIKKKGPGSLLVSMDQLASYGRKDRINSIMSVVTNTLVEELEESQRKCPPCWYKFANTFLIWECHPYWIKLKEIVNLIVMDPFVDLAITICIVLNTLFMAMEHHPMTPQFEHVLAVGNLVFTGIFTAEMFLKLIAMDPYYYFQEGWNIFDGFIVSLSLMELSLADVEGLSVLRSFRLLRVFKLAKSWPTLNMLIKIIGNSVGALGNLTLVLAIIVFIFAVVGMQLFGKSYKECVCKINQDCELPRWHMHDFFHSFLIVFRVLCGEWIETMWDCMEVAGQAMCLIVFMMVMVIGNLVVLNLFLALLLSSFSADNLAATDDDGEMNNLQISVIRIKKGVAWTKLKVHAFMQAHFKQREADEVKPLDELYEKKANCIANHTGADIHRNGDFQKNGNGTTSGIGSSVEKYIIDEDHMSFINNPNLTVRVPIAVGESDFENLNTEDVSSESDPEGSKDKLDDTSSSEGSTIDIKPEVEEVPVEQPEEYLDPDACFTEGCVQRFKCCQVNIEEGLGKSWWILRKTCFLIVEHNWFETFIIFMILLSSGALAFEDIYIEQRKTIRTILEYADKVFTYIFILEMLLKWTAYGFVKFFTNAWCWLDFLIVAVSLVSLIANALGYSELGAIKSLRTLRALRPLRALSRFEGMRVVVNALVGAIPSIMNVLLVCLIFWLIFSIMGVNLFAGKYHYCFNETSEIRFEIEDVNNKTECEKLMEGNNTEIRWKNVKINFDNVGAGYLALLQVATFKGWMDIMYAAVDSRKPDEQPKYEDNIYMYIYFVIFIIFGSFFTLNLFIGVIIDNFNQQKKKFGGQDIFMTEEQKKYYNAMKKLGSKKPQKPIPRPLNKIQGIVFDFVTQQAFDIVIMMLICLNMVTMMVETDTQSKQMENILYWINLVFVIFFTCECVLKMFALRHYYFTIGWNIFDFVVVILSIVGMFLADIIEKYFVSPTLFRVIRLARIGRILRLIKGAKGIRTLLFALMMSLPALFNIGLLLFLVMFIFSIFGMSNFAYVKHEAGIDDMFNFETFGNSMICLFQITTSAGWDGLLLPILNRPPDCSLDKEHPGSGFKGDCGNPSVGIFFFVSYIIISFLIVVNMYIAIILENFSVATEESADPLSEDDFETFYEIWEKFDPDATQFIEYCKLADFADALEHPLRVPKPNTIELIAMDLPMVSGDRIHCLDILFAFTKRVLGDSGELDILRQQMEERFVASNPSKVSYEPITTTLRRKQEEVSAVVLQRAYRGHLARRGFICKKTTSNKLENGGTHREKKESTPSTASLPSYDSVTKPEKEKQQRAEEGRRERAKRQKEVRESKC

## CCOC(F)(F)c1nnc2ccc(-c3cnc(OCC(F)(F)F)c(F)c3)cn12 [Compound 1]
[1]
  neurological scores before PTZ: Neurological scores for all but one mouse treated with Compound 1 were normal
[1]; PTZ 85 mg/kg s.c.
  protection from PTZ-induced generalized clonus: mice were protected from generalized clonus
hNaV1.6; VDB IC50 / persistent INa IC50
  Ratio to Pers. INa (Peak INa VDB): 0.56
hNaV1.6; voltage-dependent block
  Peak INa VDB Hill slope: (1.0)
hNaV1.6; voltage-dependent block, Vm inactivation V1/2
  pIC50: 7.14
[2]
  most frequently reported TEAEs: headache and fatigue
  safety and tolerability: safe and generally well tolerated
  severity of treatment-emergent adverse events (TEAEs): mild in severity
